Test results reported in patent publication US12036237B2, “Bromide source for use in treating autism spectral disorder” (INSERM (INSTITUT NATIONAL DE LA SANTE ET DE LA RECHERCHE …, priority 2016, dated 2024).
Entries after “also recorded” stand apart in the source; their conditions may differ.

Columns and labels:
Fmr1−/− mice [1] = experiment: Motor stereotypies scoring; assay type: in vivo; conditions: bromide 250 mg/kg i.p. daily
Experimental: (§1) Sodium bromide (anhydrous, Sigma-Aldrich, Saint-Quentin, France) dissolved in saline solution (NaCl, 0.9%) at the dose of 250 or 500 mg/kg, or vehicle (NaCl, 0.9%), was administered intraperitoneally once a day for 19 days in a volume of 20 ml/kg. On testing days, bromide was administered 30 min before behavioural assays. Bumetanide (Tocris, provided by Bio-Techne, Lille, France) dissolved in NaCl 0.9% at the dose of 0.5 mg/kg (Deidda et al, 2015) or vehicle was administered intraperitoneally once a day for 19 days in a volume of 20 ml/kg.
(§2) Behavioural assays started after a week of daily bromide (or bumetanide) treatment.

Shank3B−/− mice [2] = experiment: Motor stereotypies scoring; assay type: in vivo; conditions: bromide 250 mg/kg i.p. daily
Experimental: as §1, §2

[3] = literature statement (Romermann et al, 2017); cited from earlier work
Fmr1−/− mice [4] = experiment: Direct social interaction test; assay type: in vivo
Experimental: as §1, §2
(§3) Direct social interaction.

Shank3B−/− mice [5] = experiment: Direct social interaction test; assay type: in vivo
Experimental: as §1, §2, §3

Oprm1−/− mice [6] = experiment: Marble burying test; conditions: bromide 125, 250, 500 mg/kg i.p. daily
Fmr1−/− mice [7] = experiment: Novelty-suppressed feeding test; assay type: in vivo; conditions: bromide 250 mg/kg i.p. daily
Experimental: as §1, §2
(§4) Novelty-suppressed feeding. […] Immediately after an eating event, the mouse was transferred back to the home cage (free from cage-mates) and allowed to feed on lab chow for 5 min.

Shank3B−/− mice [8] = experiment: Novelty-suppressed feeding test; assay type: in vivo; conditions: bromide 250 mg/kg i.p. daily
Experimental: as §1, §2, §4

Oprm1−/− mice [9] = experiment: Direct social interaction test
Oprm1−/− mice [10] = experiment: Three-chamber social novelty preference test; conditions: bromide 125, 250, 500 mg/kg i.p. daily vs saline
Oprm1−/− mice [11] = experiment: Y-maze exploration
Fmr1−/− mice [12] = experiment: Marble burying test; assay type: in vivo; conditions: Fmr1−/− and Fmr1+/+ mice; bromide 250 mg/kg i.p. daily
Experimental: as §1, §2

Oprm1−/− mice [13] = experiment: Locomotor activity by videotracking; assay type: in vivo; conditions: Example 2; for locomotor activity after bromide administration: 250 and 500 mg/kg
Experimental: as §1
Locomotor activity. Locomotor activity was assessed in clear cages (21×11×17 cm) placed over a white Plexiglas infrared-lit platform. Light intensity of the room was set at 15 lx. The trajectories of the mice were analyzed and recorded via an automated tracking system equipped with an infrared-sensitive camera (Videotrack; View Point, Lyon, France). To focus on forward activity, only movements which speed was over 6 cm/s were taken into account for the measure of locomotor activity. Behavioral testing started when the animals were placed in the activity boxes for a 30 min-habituation period. They were then injected with either vehicle or sodium bromide (250 or 500 mg/kg) and locomotor activity was monitored for further 90 min.

Oprm1−/− mice [14] = experiment: Motor stereotypies scoring
[15] = social interaction and three-chamber tests, bromide 250 mg/kg
[16] = Example 2, Oprm1−/− mice, bromide 250, 500 mg/kg
[17] = Example 2, Oprm1−/− mice, bromide 250, 500 mg/kg i.p. daily
[18] = Example 2, male and female Oprm1−/− mice, bromide 250, 500 mg/kg
[19] = Oprm1−/− mice, bromide 125, 250, 500 mg/kg i.p. daily vs saline
[20] = Oprm1−/− mice, bumetanide 0.5 mg/kg
[21] = Oprm1−/− and wild-type, bromide 125, 250, 500 mg/kg i.p. daily
[22] = Oprm1−/− mice, bromide 125, 250, 500 mg/kg i.p. daily
[23] = Example 2, Oprm1 wild-type and mutants, bromide 250, 500 mg/kg
[24] = Example 2, Oprm1 wild-type and mutants, bromide 250, 500 mg/kg, listed as Bromide
[25] = Example 2, bromide 250, 500 mg/kg
[26] = all animals, bromide 125, 250, 500 mg/kg i.p. daily

[Br-].[Na+] [bromide, Sodium bromide]
number of rearing, grooming or burying episodes (Fmr1−/− mice [1]; Fmr1 knockout and wild-type): no effect | motor stereotypies (overall) (Fmr1−/− mice [1]; Fmr1−/− mice): efficiently reduced; also recorded: relieves | number of circling episodes (Fmr1−/− mice [1]; Fmr1−/− mice): normalized; also recorded: reduced | number of shakes (Fmr1−/− mice [1]; Fmr1−/− mice): normalized; also recorded: reduced | duration of burying events (Fmr1−/− mice [1]; all animals (Fmr1 line)): reduced | time spent burying (Fmr1−/− mice [1]; all animals (Fmr1 line)): reduced | number of rearing episodes (Shank3B−/− mice [2]; Shank3B−/− and wild-type): no effect | motor stereotypies (overall) (Shank3B−/− mice [2]; Shank3B−/− mice): efficiently reduced; also recorded: relieves | number of circling episodes (Shank3B−/− mice [2]; Shank3B−/− mice): normalized; also recorded: reduced | number of grooming episodes (Shank3B−/− mice [2]; Shank3B−/− mice): normalized | number of shakes (Shank3B−/− mice [2]; Shank3B−/− mice): normalized; also recorded: reduced | ability to cross the blood brain barrier [3]: easily cross this barrier | number of following episodes (Fmr1−/− mice [4]; bromide 250 mg/kg i.p. daily): normalized | number of grooming episodes (Fmr1−/− mice [4]; bromide 250 mg/kg i.p. daily): reduced | number of grooming episodes occurring after a social contact (Fmr1−/− mice [4]; bromide 250 mg/kg i.p. daily): reduced | number of, time spent in and duration of paw contacts (Fmr1−/− mice [4]; bromide 250 mg/kg i.p. daily): normalized | time spent in nose contact and duration of nose contacts (Fmr1−/− mice [4]; bromide 250 mg/kg i.p. daily): normalized | time spent in social contact (Fmr1−/− mice [4]; bromide 250 mg/kg i.p. daily): normalized | sociability parameters (overall) (Fmr1−/− mice [4]; [15]): efficiently restores | number of following episodes (Shank3B−/− mice [5]; bromide 250 mg/kg i.p. daily): restored to wild-type levels; also recorded: reduced | number of grooming episodes (Shank3B−/− mice [5]; bromide 250 mg/kg i.p. daily): reduced | number of grooming episodes occurring after a social contact (Shank3B−/− mice [5]; bromide 250 mg/kg i.p. daily): reduced | number of, time spent in and duration of paw contacts (Shank3B−/− mice [5]; bromide 250 mg/kg i.p. daily): restored to wild-type levels; also recorded: reduced | time spent in nose contact, number and duration of nose contacts (Shank3B−/− mice [5]; bromide 250 mg/kg i.p. daily): restored to wild-type levels; also recorded: reduced | sociability parameters (overall) (Shank3B−/− mice [5]; [15]): efficiently restores | number of marbles buried (Oprm1−/− mice [6]): reduced; also recorded: diminished | food intake back in the home cage (Fmr1−/− mice [7]; Fmr1 line): did not modify | exacerbated anxiety (overall) (Fmr1−/− mice [7]; Fmr1−/− mice): can reduce | feeding latency (Fmr1−/− mice [7]; Fmr1−/− mice): reduced the feeding latency to wild-type level; also recorded: decreased | food intake back in the home cage (Shank3B−/− mice [8]; Shank3B mutants): did not rescued | exacerbated anxiety (overall) (Shank3B−/− mice [8]; Shank3B−/− mice): can reduce | feeding latency (Shank3B−/− mice [8]; Shank3B−/− mice): normalized | number of nose contacts and following episodes (Oprm1−/− mice [9]; Example 2, FIG. 13A, male mutants, both doses): increased | total amount of time spent in social contact (Oprm1−/− mice [9]; Example 2, FIG. 13A, male wild-type and knockout mice): increased | total time in social contact, number of nose contacts and following episodes (Oprm1−/− mice [9]; Example 2, FIG. 13B, female mutant mice only, dose dependent): increased | number of rearing episodes (activity) (Oprm1−/− mice [9]; Example 2, Oprm1 null mice, bromide 250 mg/kg, more in males than females): increased | social interaction (overall) (Oprm1−/− mice [9]; [16]): able to restore social interaction | number of following episodes (Oprm1−/− mice [9]; [17]): increasing | number, time spent in and duration of nose and paw contacts (Oprm1−/− mice [9]; [17]): increasing | time spent in close contact (Oprm1−/− mice [9]; [17]): increasing | gender influence on the increase of social interaction parameters (Oprm1−/− mice [9]; Example 2, Oprm1−/− mice, effects since 250 mg/kg in males, only at the highest dose in females): more significantly in males than in females | duration of grooming episodes (Oprm1−/− mice [9]; [18]): reduced | number of grooming episodes (Oprm1−/− mice [9]; [18]): reduced | number of grooming episodes occurring immediately after a close contact (Oprm1−/− mice [9]; [18]): reduced | time spent grooming (Oprm1−/− mice [9]; [18]): reduced | direct social interaction (overall) (Oprm1−/− mice [9]; [19]): can restore direct social interaction; also recorded: significantly improved social interaction; also recorded: increased direct social interaction | number of following episodes (Oprm1−/− mice [9]; [19]): dose-dependently increasing; also recorded: increased | number of grooming episodes (Oprm1−/− mice [9]; [19]): reduced | number of grooming episodes occurring immediately after a social contact (Oprm1−/− mice [9]; [19]): reduced | number, time spent in and duration of nose and paw contacts (Oprm1−/− mice [9]; [19]): dose-dependently increasing; also recorded: increased | total time spent in social contact (Oprm1−/− mice [9]; [19]): dose-dependently increasing; also recorded: increased | efficiency on social interaction parameters in male compared with female mice (Oprm1−/− mice [9]; Oprm1−/− mice, bromide 250 and 500 mg/kg i.p. daily): more efficient in increasing social interaction parameters | increases in social contact time, nose contacts, following episodes and paw contacts, bromide compared with bumetanide (Oprm1−/− mice [9]; [20]): bigger increases | suppressive effects on grooming episodes incl. those after a social contact, bromide compared with bumetanide (Oprm1−/− mice [9]; [20]): comparable | beneficial effects on sociability, bromide compared with bumetanide (Oprm1−/− mice [9]; Oprm1−/− mice, social interaction and three-chamber tests, bumetanide at 0.5 mg/kg, 0.5 mg/kg): more significant; also recorded: superior efficacy | difference (mouse over toy) in nose (close) contact duration (Oprm1−/− mice [10]): restored difference | difference (mouse over toy) in number of nose (close) contacts (Oprm1−/− mice [10]): restored difference | difference (mouse over toy) in time spent in nose (close) contact (Oprm1−/− mice [10]): restored difference | difference (preference for the mouse over the toy) in time spent in compartments (Oprm1−/− mice [10]): restored difference | social preference (overall) (Oprm1−/− mice [10]): restored social preference; also recorded: increased social preference; also recorded: restored preference for the living mouse over the toy | ratio of same arm returns (cognitive stereotypies, perseveration) (Oprm1−/− mice [11]; [16]): normalized; also recorded: relieved; also recorded: abolished | spontaneous alternation (Oprm1−/− mice [11]; [16]): restored | number of arm entries (index of general locomotor activity) (Oprm1−/− mice [11]; Example 2, both genotypes and genders, bromide 250 mg/kg): increased | number of alternate arm returns (Oprm1−/− mice [11]; Example 2, more in mutants than wild-type, more in females than males): increased; also recorded: tendency to increase | rate of alternate arm returns (Oprm1−/− mice [11]; [21]): increasing the rate | perseverative same arm returns (cognitive stereotypies) (Oprm1−/− mice [11]; [22]): efficiently reduced; also recorded: demonstrated efficacy in reducing; also recorded: dose-dependently decreased; also recorded: significant decrease | number of marbles buried (Fmr1−/− mice [12]): reduced | locomotor activity during the habituation run (Oprm1−/− mice [13]; chronically treated animals, males since 250 mg/kg, females only at 500 mg/kg): higher | locomotor activity after bromide administration (Oprm1−/− mice [13]; controls (wild-type)): not modified in controls at 250 mg/kg and was increased at 500 mg/kg; also recorded: at the dose of 500 mg/kg only | locomotor activity (overall) (Oprm1−/− mice [13]; mice, bromide 250 mg/kg, males more sensitive): increases | locomotor activity after bromide administration (Oprm1−/− mice [13]; mutant (KO) animals): increased in mutant animals at the dose of 250 mg/kg, but not at 500 mg/kg; also recorded: increased activity | number of grooming episodes (Oprm1−/− mice [14]; [23]): increased grooming episodes in wild-type (WT) animals without effects in mu opioid receptor knockouts | number of head shakes (Oprm1−/− mice [14]; [23]): increased the number of head shakes in control mice to the level of mutants | number of grooming episodes (Oprm1−/− mice [14]; [24]): increased the number of grooming episodes and male and female wild-type mice, but not in mutants | number of head shakes (Oprm1−/− mice [14]; [24]): increased the number of head shakes in male and female wild-type mice, not in mutants | motor stereotypies (overall) (Oprm1−/− mice [14]; [16]): little effect | time spent burying (Oprm1−/− mice [14]; Example 2, all treated animals, bromide 250, 500 mg/kg): decreased | circling behavior (Oprm1−/− mice [14]; [25]): little effect | number of burying episodes and their duration (Oprm1−/− mice [14]; [25]): did not modify | circling behavior (Oprm1−/− mice [14]; Example 2, bromide 250, 500 mg/kg, listed as Bromide): no effect | number of rearing episodes (Oprm1−/− mice [14]; Example 2, males since 250 mg/kg, females at 500 mg/kg only): increased the number of rearing episodes in wild-type and not knockout animals | number of grooming episodes (Oprm1−/− mice [14]; [21]): dose-dependently increased the number of grooming episodes, but in wild-type animals only; also recorded: increased grooming occurrence in wild-type animals only | motor stereotypies (shakes and circling), overall (Oprm1−/− mice [14]; [22]): efficiently reduce; also recorded: demonstrated efficacy in reducing; also recorded: significant decrease | number of circling episodes (Oprm1−/− mice [14]; [22]): normalized | number of circling episodes (Oprm1−/− mice [14]; Oprm1−/− mice, bromide 125, 250, 500 mg/kg i.p. daily, listed as Bromide): decreased | number of shakes (Oprm1−/− mice [14]; Oprm1−/− mutant mice, bromide 125, 250, 500 mg/kg i.p. daily): reduced their occurrence | number of shakes (Oprm1−/− mice [14]; Oprm1−/− mutant mice, bromide 125, 250, 500 mg/kg i.p. daily, listed as Bromide): decreased | number of rearing episodes (Oprm1−/− mice [14]; all animals (Oprm1−/− and wild-type), bromide 125, 250, 500 mg/kg i.p. daily): increased | number of burying episodes (Oprm1−/− mice [14]; [26]): dose-dependently reduced; also recorded: dose dependently reduced | time spent burying (Oprm1−/− mice [14]; [26]): dose-dependently reduced | number of shakes (Oprm1−/− mice [14]; wild-type (Oprm1+/+) mice, bromide 125, 250, 500 mg/kg i.p. daily): dose-dependently increased | number of shakes (Oprm1−/− mice [14]; wild-type (Oprm1+/+) mice, bromide 125, 250, 500 mg/kg i.p. daily, listed as Bromide): increased
